The text below walks through data of ChEMBL document CHEMBL3390848, “Affinity selection and sequence-activity relationships of HIV-1 membrane fusion inhibitors directed at the drug-resistant variants” (Medchemcomm, 2010).

In test [1] the test system is Human immunodeficiency virus 1. In words: Antiviral activity against HIV1 NL4-3 harboring gp41 D36G mutant infected in human HeLa cells expressing CD4-LTR-beta-gal assessed as inhibition of viral replication after 48 hrs by MAGI assay. It counts as functional, organism-based.
Test [2] relates to Human immunodeficiency virus 1. In words: Thermal stability of HIV1 envelope glycoprotein gp41 His-tagged N-terminal heptad repeat N54-drug complex assessed as thermal unfolding transition state by measuring molar ellipticity at 4 to 90 degC by circular dichroic spectra analysis.
Test [3] concerns Human immunodeficiency virus 1. As to the kind of experiment: Binding affinity to HIV1 His-tagged N-terminal heptad repeat of envelope glycoprotein gp41 assessed as recovery of N54-drug complex after 2 hrs by LC-MS analysis. More on the design: concentration or dose not given beside the values.

Residues, ends and D or L forms follow the SMILES beside them.

As for `CC[C@H](C)[C@H](NC(=O)[C@H](CC(C)C)NC(=O)[C@H](CCC(=O)O)NC(=O)[C@H](CCC(=O)O)NC(=O)[C@@H](NC(=O)[C@H](CC(C)C)NC(=O)[C@H](CO)NC(=O)[C@@H](NC(=O)[C@H](Cc1ccc(O)cc1)NC(C)=O)[C@@H](C)O)[C@@H](C)CC)C(=O)N[C@@H](CCCCN)C(=O)N[C@@H](CCCCN)C(=O)N[C@@H](CC(=O)O)C(=O)N[C@@H](CCC(=O)O)C(=O)N[C@@H](CCC(=O)O)C(=O)N[C@@H](CCC(N)=O)C(=O)N[C@@H](CCC(N)=O)C(=O)N[C@@H](CCCCN)C(=O)N[C@@H](CCCCN)C(=O)N[C@@H](CC(N)=O)C(=O)N[C@@H](CCC(=O)O)C(=O)N[C@@H](CCC(=O)O)C(=O)N[C@@H](CCC(=O)O)C(=O)N[C@@H](CC(C)C)C(=O)N[C@@H](CCCCN)C(=O)N[C@@H](CCCCN)C(=O)N[C@@H](CC(C)C)C(=O)N[C@@H](CCC(=O)O)C(=O)N[C@@H](CCC(=O)O)C(=O)N[C@@H](Cc1c[nH]c2ccccc12)C(=O)N[C@@H](C)C(=O)N[C@@H](CCCCN)C(=O)N[C@@H](CCCCN)C(=O)N[C@@H](Cc1c[nH]c2ccccc12)C(=O)N[C@@H](CC(N)=O)C(=O)N[C@@H](Cc1c[nH]c2ccccc12)C(=O)N[C@@H](Cc1ccccc1)C(N)=O` (Ac-YTSLIEELIKKDEEQQKKNEEELKKLEEWAKKWNWF-NH2), the concentration giving a half-maximal response (EC50) (in general, the concentration giving half of the maximal effect) in test [1] is 330 nM. For the same molecule, the melting temperature (Tm) – broadly, the temperature at the midpoint of the melting transition – in test [2] amounted to 56.5 °C. For the same molecule, the Activity in test [3] stood at 1.5%.

In the case of `CC[C@H](C)[C@H](NC(=O)[C@H](CC(C)C)NC(=O)[C@H](CCC(=O)O)NC(=O)[C@H](CCC(=O)O)NC(=O)[C@@H](NC(=O)[C@H](CC(C)C)NC(=O)[C@H](CO)NC(=O)[C@@H](NC(=O)[C@H](Cc1ccc(O)cc1)NC(C)=O)[C@@H](C)O)[C@@H](C)CC)C(=O)N[C@@H](CCCCN)C(=O)N[C@@H](CCCCN)C(=O)N[C@@H](CCC(=O)O)C(=O)N[C@@H](CCC(=O)O)C(=O)N[C@@H](CCC(=O)O)C(=O)N[C@@H](CCC(N)=O)C(=O)N[C@@H](CCC(N)=O)C(=O)N[C@@H](CCCCN)C(=O)N[C@@H](CCCCN)C(=O)N[C@@H](CC(N)=O)C(=O)N[C@@H](CCC(=O)O)C(=O)N[C@@H](CCC(=O)O)C(=O)N[C@@H](CCC(=O)O)C(=O)N[C@@H](CC(C)C)C(=O)N[C@@H](CCCCN)C(=O)N[C@@H](CCCCN)C(=O)N[C@@H](CC(C)C)C(=O)N[C@@H](CCC(=O)O)C(=O)N[C@@H](CCC(=O)O)C(=O)N[C@@H](Cc1c[nH]c2ccccc12)C(=O)N[C@@H](C)C(=O)N[C@@H](CCCCN)C(=O)N[C@@H](CCCCN)C(=O)N[C@@H](Cc1c[nH]c2ccccc12)C(=O)N[C@@H](CC(N)=O)C(=O)N[C@@H](Cc1c[nH]c2ccccc12)C(=O)N[C@@H](Cc1ccccc1)C(N)=O` (Ac-YTSLIEELIKKEEEQQKKNEEELKKLEEWAKKWNWF-NH2), the EC50 in test [1] came out at 230 nM. Moreover, the Tm in test [2] was found to be 61 °C. Besides, in test [3], the Activity was 2.2%.

`CC[C@H](C)[C@H](NC(=O)[C@H](CC(C)C)NC(=O)[C@H](CCC(=O)O)NC(=O)[C@H](CCC(=O)O)NC(=O)[C@@H](NC(=O)[C@H](CC(C)C)NC(=O)[C@H](CO)NC(=O)[C@@H](NC(=O)[C@H](Cc1ccc(O)cc1)NC(C)=O)[C@@H](C)O)[C@@H](C)CC)C(=O)N[C@@H](CCCCN)C(=O)N[C@@H](CCCCN)C(=O)N[C@@H](Cc1ccccc1)C(=O)N[C@@H](CCC(=O)O)C(=O)N[C@@H](CCC(=O)O)C(=O)N[C@@H](CCC(N)=O)C(=O)N[C@@H](CCC(N)=O)C(=O)N[C@@H](CCCCN)C(=O)N[C@@H](CCCCN)C(=O)N[C@@H](CC(N)=O)C(=O)N[C@@H](CCC(=O)O)C(=O)N[C@@H](CCC(=O)O)C(=O)N[C@@H](CCC(=O)O)C(=O)N[C@@H](CC(C)C)C(=O)N[C@@H](CCCCN)C(=O)N[C@@H](CCCCN)C(=O)N[C@@H](CC(C)C)C(=O)N[C@@H](CCC(=O)O)C(=O)N[C@@H](CCC(=O)O)C(=O)N[C@@H](Cc1c[nH]c2ccccc12)C(=O)N[C@@H](C)C(=O)N[C@@H](CCCCN)C(=O)N[C@@H](CCCCN)C(=O)N[C@@H](Cc1c[nH]c2ccccc12)C(=O)N[C@@H](CC(N)=O)C(=O)N[C@@H](Cc1c[nH]c2ccccc12)C(=O)N[C@@H](Cc1ccccc1)C(N)=O` (Ac-YTSLIEELIKKFEEQQKKNEEELKKLEEWAKKWNWF-NH2): the half-maximal effective concentration (EC50) in test [1] worked out at 2.8 nM. The midpoint of thermal melting (Tm) in test [2] is 64.6 °C. Besides, the Activity in test [3] worked out at 5.8%.

Take `CC[C@H](C)[C@H](NC(=O)[C@H](CC(C)C)NC(=O)[C@H](CCC(=O)O)NC(=O)[C@H](CCC(=O)O)NC(=O)[C@@H](NC(=O)[C@H](CC(C)C)NC(=O)[C@H](CO)NC(=O)[C@@H](NC(=O)[C@H](Cc1ccc(O)cc1)NC(C)=O)[C@@H](C)O)[C@@H](C)CC)C(=O)N[C@@H](CCCCN)C(=O)N[C@@H](CCCCN)C(=O)NCC(=O)N[C@@H](CCC(=O)O)C(=O)N[C@@H](CCC(=O)O)C(=O)N[C@@H](CCC(N)=O)C(=O)N[C@@H](CCC(N)=O)C(=O)N[C@@H](CCCCN)C(=O)N[C@@H](CCCCN)C(=O)N[C@@H](CC(N)=O)C(=O)N[C@@H](CCC(=O)O)C(=O)N[C@@H](CCC(=O)O)C(=O)N[C@@H](CCC(=O)O)C(=O)N[C@@H](CC(C)C)C(=O)N[C@@H](CCCCN)C(=O)N[C@@H](CCCCN)C(=O)N[C@@H](CC(C)C)C(=O)N[C@@H](CCC(=O)O)C(=O)N[C@@H](CCC(=O)O)C(=O)N[C@@H](Cc1c[nH]c2ccccc12)C(=O)N[C@@H](C)C(=O)N[C@@H](CCCCN)C(=O)N[C@@H](CCCCN)C(=O)N[C@@H](Cc1c[nH]c2ccccc12)C(=O)N[C@@H](CC(N)=O)C(=O)N[C@@H](Cc1c[nH]c2ccccc12)C(=O)N[C@@H](Cc1ccccc1)C(N)=O` (Ac-YTSLIEELIKKGEEQQKKNEEELKKLEEWAKKWNWF-NH2): the EC50 in test [1] is 0.4 nM. For the same molecule, the midpoint of thermal melting (Tm) in test [2] is 76.7 °C. In test [3], the Activity came out at 9.6%.

`CC[C@H](C)[C@H](NC(=O)[C@H](CC(C)C)NC(=O)[C@H](CCC(=O)O)NC(=O)[C@H](CCC(=O)O)NC(=O)[C@@H](NC(=O)[C@H](CC(C)C)NC(=O)[C@H](CO)NC(=O)[C@@H](NC(=O)[C@H](Cc1ccc(O)cc1)NC(C)=O)[C@@H](C)O)[C@@H](C)CC)C(=O)N[C@@H](CCCCN)C(=O)N[C@@H](CCCCN)C(=O)N[C@@H](Cc1cnc[nH]1)C(=O)N[C@@H](CCC(=O)O)C(=O)N[C@@H](CCC(=O)O)C(=O)N[C@@H](CCC(N)=O)C(=O)N[C@@H](CCC(N)=O)C(=O)N[C@@H](CCCCN)C(=O)N[C@@H](CCCCN)C(=O)N[C@@H](CC(N)=O)C(=O)N[C@@H](CCC(=O)O)C(=O)N[C@@H](CCC(=O)O)C(=O)N[C@@H](CCC(=O)O)C(=O)N[C@@H](CC(C)C)C(=O)N[C@@H](CCCCN)C(=O)N[C@@H](CCCCN)C(=O)N[C@@H](CC(C)C)C(=O)N[C@@H](CCC(=O)O)C(=O)N[C@@H](CCC(=O)O)C(=O)N[C@@H](Cc1c[nH]c2ccccc12)C(=O)N[C@@H](C)C(=O)N[C@@H](CCCCN)C(=O)N[C@@H](CCCCN)C(=O)N[C@@H](Cc1c[nH]c2ccccc12)C(=O)N[C@@H](CC(N)=O)C(=O)N[C@@H](Cc1c[nH]c2ccccc12)C(=O)N[C@@H](Cc1ccccc1)C(N)=O` (Ac-YTSLIEELIKKHEEQQKKNEEELKKLEEWAKKWNWF-NH2): the EC50 in test [1] came out at 35 nM. The Tm in test [2] is 58.5 °C. For the same molecule, in test [3], the Activity was determined as 3.2%.

`CC[C@H](C)[C@H](NC(=O)[C@H](CC(C)C)NC(=O)[C@H](CCC(=O)O)NC(=O)[C@H](CCC(=O)O)NC(=O)[C@@H](NC(=O)[C@H](CC(C)C)NC(=O)[C@H](CO)NC(=O)[C@@H](NC(=O)[C@H](Cc1ccc(O)cc1)NC(C)=O)[C@@H](C)O)[C@@H](C)CC)C(=O)N[C@@H](CCCCN)C(=O)N[C@@H](CCCCN)C(=O)N[C@H](C(=O)N[C@@H](CCC(=O)O)C(=O)N[C@@H](CCC(=O)O)C(=O)N[C@@H](CCC(N)=O)C(=O)N[C@@H](CCC(N)=O)C(=O)N[C@@H](CCCCN)C(=O)N[C@@H](CCCCN)C(=O)N[C@@H](CC(N)=O)C(=O)N[C@@H](CCC(=O)O)C(=O)N[C@@H](CCC(=O)O)C(=O)N[C@@H](CCC(=O)O)C(=O)N[C@@H](CC(C)C)C(=O)N[C@@H](CCCCN)C(=O)N[C@@H](CCCCN)C(=O)N[C@@H](CC(C)C)C(=O)N[C@@H](CCC(=O)O)C(=O)N[C@@H](CCC(=O)O)C(=O)N[C@@H](Cc1c[nH]c2ccccc12)C(=O)N[C@@H](C)C(=O)N[C@@H](CCCCN)C(=O)N[C@@H](CCCCN)C(=O)N[C@@H](Cc1c[nH]c2ccccc12)C(=O)N[C@@H](CC(N)=O)C(=O)N[C@@H](Cc1c[nH]c2ccccc12)C(=O)N[C@@H](Cc1ccccc1)C(N)=O)[C@@H](C)CC` (Ac-YTSLIEELIKKIEEQQKKNEEELKKLEEWAKKWNWF-NH2): the EC50 in test [1] stood at 0.4 nM. Besides, the melting temperature (Tm) in test [2] turned out to be 79.7 °C. Also, the Activity in test [3] stood at 10.4%.

With `CC[C@H](C)[C@H](NC(=O)[C@H](CC(C)C)NC(=O)[C@H](CCC(=O)O)NC(=O)[C@H](CCC(=O)O)NC(=O)[C@@H](NC(=O)[C@H](CC(C)C)NC(=O)[C@H](CO)NC(=O)[C@@H](NC(=O)[C@H](Cc1ccc(O)cc1)NC(C)=O)[C@@H](C)O)[C@@H](C)CC)C(=O)N[C@@H](CCCCN)C(=O)N[C@@H](CCCCN)C(=O)N[C@@H](CCCCN)C(=O)N[C@@H](CCC(=O)O)C(=O)N[C@@H](CCC(=O)O)C(=O)N[C@@H](CCC(N)=O)C(=O)N[C@@H](CCC(N)=O)C(=O)N[C@@H](CCCCN)C(=O)N[C@@H](CCCCN)C(=O)N[C@@H](CC(N)=O)C(=O)N[C@@H](CCC(=O)O)C(=O)N[C@@H](CCC(=O)O)C(=O)N[C@@H](CCC(=O)O)C(=O)N[C@@H](CC(C)C)C(=O)N[C@@H](CCCCN)C(=O)N[C@@H](CCCCN)C(=O)N[C@@H](CC(C)C)C(=O)N[C@@H](CCC(=O)O)C(=O)N[C@@H](CCC(=O)O)C(=O)N[C@@H](Cc1c[nH]c2ccccc12)C(=O)N[C@@H](C)C(=O)N[C@@H](CCCCN)C(=O)N[C@@H](CCCCN)C(=O)N[C@@H](Cc1c[nH]c2ccccc12)C(=O)N[C@@H](CC(N)=O)C(=O)N[C@@H](Cc1c[nH]c2ccccc12)C(=O)N[C@@H](Cc1ccccc1)C(N)=O` (Ac-YTSLIEELIKKKEEQQKKNEEELKKLEEWAKKWNWF-NH2), the concentration giving a half-maximal response (EC50) in test [1] was 330 nM. Moreover, the melting temperature (Tm) in test [2] amounted to 50.6 °C. In test [3], the Activity was 0.8%.
